System: synaptic proteins (GluR1, Synapsin 1, PSD95)
Test: Western blot of synaptic proteins in crude synaptosomes from rat prefrontal cortex
Type: in vivo
Details: for levels of GluR1 in crude PFC synaptosomes / levels of PSD95 in crude PFC synaptosomes / levels of Synapsin 1 in crude PFC synaptosomes: Example B, 24 hr after administration
Description: Study Design. Forty-eight (48) male Sprague Dawley rats weighing between 175 and 200 g were randomized into 8 study groups (n=6/group), following a 5-day acclimation period. On study day 0, rats in Groups 3 and 7 received a single dose of Sal while Groups 4 and 8 received a single dose of Ket (10 mg/kg) each by i.p. injection. […] One hour after dosing, rats in Groups 1-4 were sacrificed by conscious decapitation and followed by collection of the PFC. Crude synaptosomes were prepared from the PFC and three mTORC1 substrates, pmTOR, pp70S6K and p4E-BP1, and corresponding total protein loading controls (mTOR, p70S6K, and GAPDH) were quantitated by WB. Twenty-four hours after dosing, rats in Groups 5-8 were sacrificed by conscious decapitation and collection of the PFC. Crude synaptosomes were prepared from the PFC and the synaptic proteins (GluR1 and PSD95), as well as the total protein loading control (GAPDH), were quantitated by WB.
Prefrontal Cortex Synaptosome Preparations. The brain was dissected from rats in all groups (n=6/group) and rinsed in PBS. The PFC was collected as shown in FIG. 6 and homogenized at 4° C. in homogenization buffer (0.32 M sucrose, 20 mM HEPES at pH 7.4, 1 mM EDTA, 5 mM NaF, 1 mM NaVO3 and protease inhibitor cocktail (Roche; Ser. No. 19/543,200)). The homogenate was centrifuged for 10 min at 2,800 rpm at 4° C. after which the supernatant was removed and re-centrifuged at 12,000 rpm for 10 min at 4° C. The resulting pellet containing crude synaptosomes was re-suspended in Lysis buffer (50 mM Tris-HCl (pH 7.5), 150 mM NaCl, 1% Triton X-100, 0.1% SDS, 2 mM, EDTA, 1 mM NaVO3, 5 mM NaF and protease inhibitor cocktail) and sonicated on ice for 20 s at 50% amplitude. The protein concentration was determined by Bradford assay and all samples were mixed with loading buffer (60 mM Tris-HCl pH 6.8, 20 mM DTT, 2% SDS, 10% glycerol, 5% β-mercaptoethanol and 0.01% Bromophenol blue) and stored at -20° C. until WB analysis.
Western Blot Analysis: Western blot analysis for GluR1, PSD95 and GAPDH was performed as previously described. Briefly, synaptosomes preparations (15 μg total protein) were loaded into 10-15% SDS PAGE gel for electrophoresis and transferred to a polyvinylidene difluoride (PVDF) membrane in transfer buffer (10× premixed electrophoresis buffer contains 25 mM Tris, 192 mM glycine, pH 8.3; Bio-Rad). The PVDF membranes were blocked for 1 hr at room temperature with blocking buffer (2% BSA in PBS-T (10 mM Phosphate, pH 7.4, 2.7 mM KCl, 137 mM NaCl and 0.1% Tween-20)) and subsequently incubated with primary antibodies: rabbit anti-pmTOR at 1:1000 (Cell Signaling; #5536), rabbit anti-mTOR at 1:1000 (Cell Signaling; #2972), rabbit anti-pp70S6K at 1:1000 (Cell Signaling; #9205), rabbit anti-p70S6K at 1:1000 (Cell Signaling; #2708), rabbit anti-p4E-BP1 at 1:1000 (Cell Signaling; #2855), rabbit anti-GluR1 at 1:1000 (Cell Signaling; #13185), rabbit anti-Synapsin 1 at 1:1000 (Cell Signaling; #5297), rabbit anti-PSD95 at 1:1000 (Cell Signaling; #9644) and rabbit anti-GAPDH at 1:1000 (Cell Signaling; #5174) in blocking buffer overnight at 4° C. The next day, membranes were washed 3 times in PBS-T buffer and incubated with horseradish peroxidase conjugated anti-mouse or anti-rabbit secondary antibody at 1:5000 to 1:10000 (Vector Laboratories Inc) for 1 hr. After final three washes with PBS-T buffer, bands were detected using enhanced chemiluminescence. The blots then were incubated in the stripping buffer (2% SDS, 100 mM β-mercaptoethanol, 50 mM Tris-HCl pH 6.8) for 30 min at 50-55° C. followed by three washes with PBS-T buffer. The stripped blots were kept in blocking solution for 1 hr and incubated with the primary antibody directed against total levels of the respective protein or GAPDH for loading control. Densitometric analysis of phospho- and total immunoreactivity for each protein was conducted using NIH Image J software. […]

Row | SMILES | levels of GluR1 in crude PFC synaptosomes (NV-5138 160 mg/kg oral) | levels of PSD95 in crude PFC synaptosomes (NV-5138 160 mg/kg oral) | levels of Synapsin 1 in crude PFC synaptosomes (NV-5138 160 mg/kg oral) | GluR1 in crude PFC synaptosomes (Example E, CUS rats, NV-5138 160 mg/kg oral, 24 hrs after second dose (day 5), p<0.01) | PSD95 in crude PFC synaptosomes (Example E, CUS rats, NV-5138 160 mg/kg oral, 24 hrs after second dose (day 5), p<0.05) | levels of GluR1 in crude PFC synaptosomes (Ket 10 mg/kg i.p.) | levels of PSD95 in crude PFC synaptosomes (Ket 10 mg/kg i.p.) | levels of Synapsin 1 in crude PFC synaptosomes (Ket 10 mg/kg i.p.)
1 | CC(C)(C[C@H](N)C(=O)O)C(F)F [NV-5138] | significantly increased | trend toward increased expression | significantly increased | normalization | normalization |  |  | 
2 | CNC1(c2ccccc2Cl)CCCCC1=O (centres unmarked) [Ket, ketamine, reference compound] |  |  |  |  |  | significantly increased | significantly increased | significantly increased

Source: patent publication US20210228523A1, “MODULATORS OF SESTRIN-GATOR2 INTERACTION AND USES THEREOF” (Navitor Pharmaceuticals, Inc., priority 2017, published 2021)
